According to patent US20230078764A1 (Yumanity Therapeutics, Inc., priority 2019, published 2023):
pIC50: −log10 of the molar value. Where two headings read alike, the source gives them in different places.

What was measured:
human SCD1 = biological target: T1, human SCD1 (Homo sapiens, UniProt O00767); test: Growth inhibition of yeast strain expressing human SCD1 as sole desaturase (OLE1 deleted), OD600 readout; type: cell-based
T1 construct: expressed in transfected cells; host or cells: yeast strain with OLE1 deleted, plasmid-borne human SCD1 (selected in SD-Ura)
T1 sequence (O00767 1-359): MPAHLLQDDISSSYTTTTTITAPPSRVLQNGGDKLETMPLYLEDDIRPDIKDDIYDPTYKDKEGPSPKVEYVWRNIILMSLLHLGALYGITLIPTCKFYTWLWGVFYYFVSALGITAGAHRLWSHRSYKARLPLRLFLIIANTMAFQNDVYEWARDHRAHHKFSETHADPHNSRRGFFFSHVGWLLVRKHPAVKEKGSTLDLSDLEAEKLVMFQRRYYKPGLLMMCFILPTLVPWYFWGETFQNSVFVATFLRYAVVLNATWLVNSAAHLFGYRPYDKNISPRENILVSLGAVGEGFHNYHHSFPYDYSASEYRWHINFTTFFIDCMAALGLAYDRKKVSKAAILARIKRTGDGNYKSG

human SCD5 = biological target: T2, human SCD5 (Homo sapiens, UniProt Q86SK9); test: Growth inhibition of yeast strain expressing human SCD5 as sole desaturase (OLE1 deleted), OD600 readout; type: cell-based
T2 construct: expressed in transfected cells; host or cells: yeast strain with OLE1 deleted, plasmid-borne human SCD5 (selected in SD-Ura)
T2 sequence (Q86SK9 1-330): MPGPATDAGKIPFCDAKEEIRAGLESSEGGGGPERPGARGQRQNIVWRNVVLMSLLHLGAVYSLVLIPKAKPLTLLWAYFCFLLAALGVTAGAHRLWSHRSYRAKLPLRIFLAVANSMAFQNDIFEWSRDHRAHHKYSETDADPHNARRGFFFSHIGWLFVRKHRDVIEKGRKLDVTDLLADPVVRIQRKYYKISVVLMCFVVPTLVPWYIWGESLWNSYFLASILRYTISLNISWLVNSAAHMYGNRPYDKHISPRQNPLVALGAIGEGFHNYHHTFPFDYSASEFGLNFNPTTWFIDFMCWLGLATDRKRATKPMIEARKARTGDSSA

[1] = yeast strain expressing human SCD1 as sole desaturase, growth (OD600) after 40 h at 30° C., read-out: SCD1 IC50
[2] = yeast strain expressing human SCD5 as sole desaturase, growth (OD600) after 40 h at 30° C., read-out: SCD5 IC50

SMILES	pIC50 (human SCD1; [1])	pIC50 (human SCD5; [2])	pIC50 (human SCD1; SCD1 IC50)	pIC50 (human SCD5; SCD5 IC50)
O=C(Nc1ccc(Cc2cccc(Cl)c2)cn1)c1ccc(C2(O)CC2)nc1 [Compound 557]	< 4.35	5.72		
Cc1cc(C(=O)Nc2ccc(Cc3ccc(F)c(F)c3)cn2)nn(C)c1=O [Compound 523]	< 4.35	6.96		
Cn1nc(C(=O)Nc2ccc(Cc3cccc(Cl)c3)nn2)ccc1=O [Compound 196, N-(6-(3-chlorobenzyl)pyridazin-3-yl)-1-methyl-6-oxo-1,6-dihydropyridazine-3-carboxamide]	5.25	5.81		
O=C(Nc1ccc(Cc2ccc(F)c(F)c2)cn1)c1cnc(Cl)cn1 [Compound 602]	< 4.35	7.18		
O=C(Nc1ccc(COc2cccc(Cl)c2)cn1)c1ccc(CO)nc1 [Compound 292]	5.68	8.00		
Cn1cc(C(=O)Nc2ccc(Cc3cccc(C(F)F)c3)cn2)ccc1=O [Compound 545]	6.15	7.00		
CN1N=C(C(=O)Nc2ccnc(Cc3cccc(Cl)c3)c2)CCC1=O [Compound 382]	< 4.35	< 4.35		
CN(Cc1ccc(C(=O)Nc2ccc(Cc3cccc(Cl)c3)cn2)cn1)C(=O)OC(C)(C)C [Compound 348]	5.13	5.30		
CCn1cc(C(=O)Nc2ccc(Cc3cccc(Cl)c3)nn2)ccc1=O [Compound 184, N-(6-(3-chlorobenzyl)pyridazin-3-yl)-1-ethyl-6-oxo-1,6-dihydropyridine-3-carboxamide]	< 4.35	4.54		
CC(C)(O)c1ccc(C(=O)Nc2ccc(Cc3cccc(Cl)c3)cn2)cn1 [Compound 374]	4.41	5.15		
N#Cc1cc(F)cc(Cc2ccc(NC(=O)c3ccnc(Cl)n3)nc2)c1 [Compound 666]	5.44	6.54		
CCn1nc(C(=O)Nc2ncc(Cc3cccc(F)c3)s2)ccc1=O [Compound 227, 1-ethyl-N-(5-(3-fluorobenzyl)thiazol-2-yl)-6-oxo-1,6-dihydropyridazine-3-carboxamide]	6.36	6.44		
Cn1cc(C(=O)Nc2ccc(Nc3cccc(F)c3)cn2)ccc1=O [Compound 349]	< 4.35	4.49		
CN1N=C(C(=O)Nc2nc(Cl)c(Cc3cccc(F)c3)s2)CCC1=O [Compound 218, N-(4-chloro-5-(3-fluorobenzyl)thiazol-2-yl)-1-methyl-6-oxo-1,4,5,6-tetrahydropyridazine-3-carboxamide]	5.56	6.44		
CN1N=C(NC(=O)c2ccc(Cc3cccc(C(F)F)c3)cn2)CCC1=O [Compound 294]	< 4.35	6.52		
Cc1nccc(C(=O)Nc2ccc(Cc3ccc(F)c(C#N)c3)cn2)n1 [Compound 113, N-(5-(3-cyano-4-fluorobenzyl)pyridin-2-yl)-2-methylpyrimidine-4-carboxamide]	7.10	8.00		
CN1N=C(C(=O)Nc2ccc(Cc3ccccc3)nn2)CCC1=O [Compound 186, N-(6-benzylpyridazin-3-yl)-1-methyl-6-oxo-1,4,5,6-tetrahydropyridazine-3-carboxamide]	< 4.35	4.90		
Cn1ccc(NC(=O)c2ccc(Cc3cccc(F)c3)cn2)n1 [Compound 95, 5-(3-fluorobenzyl)-N-(1-methyl-1H-pyrazol-3-yl)picolinamide]	< 4.35	8.00		
O=C(Nc1ccc(CO)nc1)c1ccc(Cc2cccc(Cl)c2)cn1 [Compound 132, 5-(3-Chlorobenzyl)-N-(6-(hydroxymethyl)pyridin-3-yl)picolinamide]	8.00	8.00		
O=C(Nc1ncc(Cc2cccc(F)c2)s1)c1ccc(=O)n(CCF)n1 [Compound 226, N-(5-(3-fluorobenzyl)thiazol-2-yl)-1-(2-fluoroethyl)-6-oxo-1,6-dihydropyridazine-3-carboxamide]	5.14	5.24		
Cn1nc(C(=O)Nc2ccc(Cc3cncc(Cl)c3)cn2)ccc1=O [Compound 275]	< 4.35	5.52		
Cn1cc(C(=O)Nc2ccc(Cc3ccc4c(c3)COC4)cn2)ccc1=O [Compound 62, N-(5-((1,3-dihydroisobenzofuran-5-yl)methyl)pyridin-2-yl)-1-methyl-6-oxo-1,6-dihydropyridine-3-carboxamide]			5.63	5.69
Cn1cc(C(=O)Nc2ncc(Cc3cccc(F)c3)s2)ccc1=O [Compound 224, N-(5-(3-fluorobenzyl)thiazol-2-yl)-1-methyl-6-oxo-1,6-dihydropyridine-3-carboxamide]			6.51	6.66

SMILES	pIC50 (human SCD1; [1])	pIC50 (human SCD5; [2])	pIC50 (human SCD1; SCD1 IC50)	pIC50 (human SCD5; SCD5 IC50)
Cn1cc(C(=O)Nc2ccc(Cc3cccc(Cl)c3)cn2)ccc1=O [Example 48, N-(5-(3-chlorobenzyl)pyridin-2-yl)-1-methyl-6-oxo-1,6-dihydropyridine-3-carboxamide]	6.82	8.00		
CN1N=C(NC(=O)c2ccc(Cc3cccc(Cl)c3)cn2)CCC1=O [Compound 86, 5-(3-Chlorobenzyl)-N-(1-methyl-6-oxo-1,4,5,6-tetrahydropyridazin-3-yl)picolinamide]	5.01	7.15		
Cn1nccc(NC(=O)c2ccc(Cc3cccc(Cl)c3)cn2)c1=O [Compound 363]	5.50	6.89		
Cn1cc(C(=O)Nc2ccc(Cc3cccc(C#N)c3)cn2)ccc1=O [Compound 61, N-(5-(3-cyanobenzyl)pyridin-2-yl)-1-methyl-6-oxo-1,6-dihydropyridine-3-carboxamide]			5.12	6.22
CC(O)c1ccc(C(=O)Nc2ccc(Cc3cccc(Cl)c3)cn2)nc1 (centres unmarked) [Compound 510]	7.00	7.11		
CN1N=C(C(=O)Oc2ccc(NCc3cccc(Br)c3)nc2)CCC1=O [Compound 268]	< 4.35	5.52		
O=C(Nc1ccc(Cc2cccc(F)c2)cn1)c1ccc(=O)n(C2CC2)c1 [Compound 258]	5.41	6.74		
O=C(Nc1ccc(Cc2cccc(F)c2)cn1)c1cc(Br)sn1 [Compound 334]	< 4.35	5.03		
O=C(Nc1ccc(Cc2cccc(F)c2)cn1)c1ccnc(C2CC2)n1 [Compound 506]	5.82	7.85		
Cn1cc(C(=O)Nc2ccc(Cc3cccc(F)c3)cn2)n(C)c1=O [Compound 642]	7.04	8.00		
Cn1nc(NC(=O)N2CCC(Cc3cccc(Cl)c3)CC2)ccc1=O [Compound 309]	6.27	7.30		
O=C(Nc1ccc(Cc2cccc(F)c2)cn1)c1cc2ncncc2s1 [Compound 555]	6.13	8.00		
Cn1cc(C(=O)Nc2ccc(Cc3cccc(Cl)c3)cn2)cn1 [Compound 94, N-(5-(3-chlorobenzyl)pyridin-2-yl)-1-methyl-1H-pyrazole-4-carboxamide]	7.52	8.00		
CCn1cc(C(=O)Nc2ccc(Cc3ccc(F)cc3)nn2)ccc1=O [Compound 379]	< 4.35	< 4.35		
Cn1cc(C(=O)Nc2ccc(C#CC3CC3)cn2)ccc1=O [Compound 337]	< 4.35	5.01		
CN1CC(C(=O)Nc2ncc(Cc3cccc(F)c3)s2)CCC1=O (centres unmarked) [Compound 223, N-(5-(3-fluorobenzyl)thiazol-2-yl)-1-methyl-6-oxopiperidine-3-carboxamide]	< 4.35			4.95
Cn1cc(C(=O)Nc2ccc(Oc3cc(F)cc(Cl)c3)cn2)ccc1=O [Compound 589]	5.64	6.82		
COc1ccc(C(=O)Nc2ncc(Cc3cccc(F)c3)s2)nn1 [Compound 404]	< 4.35	< 4.35		
CN1N=C(C(=O)Nc2ccc(Oc3ccc(Cl)cc3)cc2)CCC1=O [Compound 158, N-(4-(4-chlorophenoxy)phenyl)-1-methyl-6-oxo-1,4,5,6-tetrahydropyridazine-3-carboxamide]	4.98	5.21		
Cn1cc(NC(=O)c2ccc(COc3ccc(F)c(Cl)c3)cn2)ccc1=O [Compound 488]	5.24	6.96		
CC(O)c1cnc(C(=O)Nc2ccc(Cc3ccc(F)c(F)c3)cn2)nc1 (centres unmarked) [Compound 604]	7.43	7.38		
COc1cccc(Cc2ccc(NC(=O)c3ccc(=O)n(C)n3)nc2)c1 [Example 44, N-(5-(3-methoxybenzyl)pyridin-2-yl)-1-methyl-6-oxo-1,6-dihydropyridazine-3-carboxamide]	4.85	6.11		
CCn1cc(C(=O)Nc2ccc(Cc3ccc(F)cc3)cn2)ccc1=O [Compound 81, 1-ethyl-N-(5-(4-fluorobenzyl)pyridin-2-yl)-6-oxo-1,6-dihydropyridine-3-carboxamide]	< 4.35	5.62		
